Legend:
KK-Ay mouse [1] = experiment: Glucose tolerance test (sucrose loading) in KK-Ay mice; format: in vivo; settings: for Blood glucose level: oral pioglitazone 20 mg/kg or Compound 2 100 mg/kg
Procedure: After the mixed feed was given for 1 week, the mice were fasted overnight and then subjected to a glucose tolerance test. […] To the non-additive group (control group), 0.5% CMC-Na solution was administered in an amount of 5 ml/kg. At a time of 30 minutes after administration, the mice were loaded with 2 g/kg of 40% sucrose solution. Before the sugar loading and at a time of 30 minutes, 1 hour and 2 hours after the sugar loading, a small amount of blood was collected from a mouse tail vein, and measured for its blood glucose level by a simple blood glucose measuring instrument Glutest Ace (Sanwa Kagaku Kenkyusho Co., Ltd.).

KK-Ay mouse [2] = experiment: Effect on type 2 diabetes mellitus model mouse: blood glucose level during mixed-feed administration; format: in vivo; settings: KK-Ay mice; for Blood glucose level: means±SE, n=5
Procedure: Using a KK-Ay mouse which is genetically obese and type 2 diabetic animal, the effect of Compound 2 on diabetes mellitus was evaluated.
Compound 2 was prepared in the same procedure as in Example 1 and added to the basal diet such that the content of Compound 2 in a final feed was 0.1%. On the day before administration and 4 days after administration, a small amount of blood was collected from a mouse tail vein, and measured for its blood glucose level by a simple blood glucose measuring instrument Glutest Ace (Sanwa Kagaku Kenkyusho Co., Ltd.).

[3] = target: T1, mouse PPARγ ligand-binding site (Mus musculus, UniProt P37238); experiment: Measurement of PPARγ ligand activity (GAL4 chimera luciferase reporter in CV-1 cells); format: cell-based; settings: CV-1 cells, 24 hours, specific activity relative to untreated control (DMSO) = 1.00
T1 construct: expressed in transfected cells; host or cells: CV-1 cells (African green monkey kidney)
T1 sequence (P37238 174-475 isoform P37238-2): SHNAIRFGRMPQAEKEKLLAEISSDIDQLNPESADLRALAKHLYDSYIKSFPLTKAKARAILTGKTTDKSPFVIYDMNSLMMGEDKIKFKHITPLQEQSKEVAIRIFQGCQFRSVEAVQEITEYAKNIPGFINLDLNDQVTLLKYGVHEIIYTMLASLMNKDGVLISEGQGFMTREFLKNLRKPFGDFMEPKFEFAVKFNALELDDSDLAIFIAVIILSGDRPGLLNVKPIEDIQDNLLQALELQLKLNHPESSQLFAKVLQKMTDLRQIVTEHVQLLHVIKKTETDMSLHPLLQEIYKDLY
Procedure: CV-1 cells (cultured cells derived from the kidney of a male African green monkey) were inoculated on a 96-well culture plate in a concentration of 6×10^3 cells/well and incubated at 37° C. in 5% CO2 for 24 hours. The medium used was DMEM (Dulbecco's Modified Eagle Medium: GIBCO) containing 10% FBS (fetal bovine serum), 10 ml/L penicillin and streptomycin solution (containing 5000 IU/ml and 5,000 μg/ml, respectively: GIBCO) and 37 mg/L ascorbic acid (Wako Pure Chemical Industries, Ltd.). […] 4xUASg-luc is a reporter plasmid comprising four GAL4 response sequences (UASg) integrated into a region upstream of a luciferase gene. At about 24 hours after transfection, the medium was exchanged with a sample-containing medium, and the cells were cultured for 24 hours (n=4). The sample-containing medium was prepared by dissolving a sample in dimethyl sulfoxide (DMSO) in an amount of 1/1000 based on the medium, while for the untreated control, DMSO in an amount of 1/1000 based on the medium was used in place of the sample. After the cells were washed with a Ca- and Mg-containing phosphate buffered physiological saline (PBS+), LucLite (Packard) was added thereto, and the intensity of luciferase luminescence was measured with a TopCount microplate scintillation/luminescence counter (Packard).
As the control group, pM (plasmid from which the PPARγ ligand-binding site gene was removed) was measured in place of pM-mPPARγ in the same manner as for the measurement group. For each sample, the ratio (measurement group/control group) of the average luminescence intensity of the measurement group (n=4) to that of the control group was calculated, and the specific activity relative to the activity of the untreated control was regarded as the PPARγ ligand activity of the sample.

[4] = 30 minutes after sugar loading (2 g/kg sucrose)
[5] = 1 hour after sugar loading (2 g/kg sucrose)
[6] = before sugar loading, fasted KK-Ay mice after 1 week mixed feed
[7] = 4 days after administration, in feed: pioglitazone 0.02%, Compound 2 0.1%

CCc1ccc(CCOc2ccc(CC3SC(=O)NC3=O)cc2)nc1 (stereo not shown) [Pioglitazone, pioglitazone, reference compound]
Blood glucose level (KK-Ay mouse [1]; [4]): 158 ± 11 mg/dL | Blood glucose level (KK-Ay mouse [1]; [5]): 136 ± 5 mg/dL | Blood glucose level (KK-Ay mouse [1]; [6]): 89 ± 3 mg/dL | Blood glucose level (KK-Ay mouse [2]; [7]): 191 ± 6 mg/dL | Blood glucose level (KK-Ay mouse [2]; before administration): 486 ± 26 mg/dL

COc1cc2oc(=O)c(-c3ccc(O)cc3O)cc2c(OC)c1CC=C(C)C [Compound 2, Glycyrin]
PPARγ ligand activity ([3]; added concentration 2 μg/ml): 2.81 | PPARγ ligand activity ([3]; added concentration 5 μg/ml): 3.34 | PPARγ ligand activity ([3]; added concentration 10 μg/ml): 3.67 | Blood glucose level (KK-Ay mouse [1]; [4]): 225 ± 27 mg/dL | Blood glucose level (KK-Ay mouse [1]; [5]): 129 ± 8 mg/dL | Blood glucose level (KK-Ay mouse [1]; 2 hour after sugar loading (2 g/kg sucrose)): 100 ± 3 mg/dL | Increase in blood glucose levels after the sugar loading (in words) (KK-Ay mouse [1]; KK-Ay mice, 100 mg/kg oral): statistically significantly inhibited a rapid increase in blood glucose levels after the sugar loading | Blood glucose level (KK-Ay mouse [1]; [6]): 78 ± 4 mg/dL | Blood glucose level (KK-Ay mouse [2]; [7]): 278 ± 14 mg/dL | Blood glucose levels on the fourth day after the administration (in words) (KK-Ay mouse [2]; 0.1% in feed): statistically significantly reduced | Blood glucose level (KK-Ay mouse [2]; before administration): 474 ± 27 mg/dL
